Reference: patent US8952024B2, “Herbicidal pyrimidone derivatives” (E I du Pont de Nemours and Company, priority 2009, dated 2015)

Assays:
Type in all cases: in vivo
[1] = test system: windgrass (Apera spica-venti); assay: Test B postemergence plant response; conditions: Postemergence
Source text: At the same time, plants selected from these crop and weed species and also winter barley (Hordeum vulgare), canarygrass (Phalaris minor), chickweed (Stellaria media) and windgrass (Apera spica-venti) were planted in pots containing Redi-Earth® planting medium (Scotts Company, 14111 Scottslawn Road, Marysville, Ohio 43041) comprising spaghnum peat moss, vermiculite, wetting agent and starter nutrients and treated with postemergence applications of some of the test chemicals formulated in the same manner. Plants ranged in height from 2 to 18 cm (1- to 4-leaf stage) for postemergence treatments.
Treated plants and controls were maintained in a greenhouse for 13 to 15 days, after which time all treated plants were visually evaluated and compared to controls. Plant response ratings, summarized in Table B, are based on a scale of 0 to 100 where 0 is no effect and 100 is complete control. A dash (-) response means no test result.

[2] = test system: morningglory (Ipomoea spp.); assay: Test A pre-/postemergence plant response; conditions: for Morningglory plant response rating: visual injury, 0 to 100 scale (0 no effect, 100 complete control), approx. ten days
In short: (§1)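 Formulated test chemicals (non-phytotoxic solvent, surfactant) were sprayed onto soil right after planting and simultaneously onto young plants at one to two leaves, 2 to 10 cm tall. Plants stayed in the greenhouse about ten days; injury was then visually scored against untreated controls, from 0 (no effect) to 100 (complete control).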

[3] = test system: pigweed (Amaranthus retroflexus); assay: Test A pre-/postemergence plant response; conditions: for Pigweed plant response rating: visual injury, 0 to 100 scale (0 no effect, 100 complete control), approx. ten days
In short: as §1

[4] = test system: giant foxtail (Setaria faberii); assay: Test A pre-/postemergence plant response; conditions: for Foxtail, Giant plant response rating: visual injury, 0 to 100 scale (0 no effect, 100 complete control), approx. ten days
In short: as §1

[5] = test system: large crabgrass (Digitaria sanguinalis); assay: Test A pre-/postemergence plant response; conditions: for Crabgrass, Large plant response rating: visual injury, 0 to 100 scale (0 no effect, 100 complete control), approx. ten days
In short: as §1

[6] = test system: velvetleaf (Abutilon theophrasti); assay: Test A pre-/postemergence plant response; conditions: for Velvetleaf plant response rating: visual injury, 0 to 100 scale (0 no effect, 100 complete control), approx. ten days
In short: as §1

[7] = test system: barnyardgrass (Echinochloa crus-galli); assay: Test A pre-/postemergence plant response; conditions: for Barnyardgrass plant response rating: visual injury, 0 to 100 scale (0 no effect, 100 complete control), approx. ten days
In short: as §1

[8] = test system: wheat (Triticum aestivum); assay: Test A pre-/postemergence plant response; conditions: for Wheat plant response rating: visual injury, 0 to 100 scale (0 no effect, 100 complete control), approx. ten days
In short: as §1

[9] = test system: corn (Zea mays); assay: Test A pre-/postemergence plant response; conditions: for Corn plant response rating: visual injury, 0 to 100 scale (0 no effect, 100 complete control), approx. ten days
In short: as §1

[10] = 31 g ai/ha, 0 to 100 scale (0 no effect, 100 complete control)
[11] = 125 g ai/ha, scale 0 to 100 (0 no effect, 100 complete control)
[12] = Postemergence, 125 g ai/ha, 0 to 100 scale where 0 is no effect and 100 is complete control
[13] = Preemergence, 125 g ai/ha, 0 to 100 scale, 0 = no effect, 100 = complete control
[14] = Preemergence, 500 g ai/ha, 0 to 100 scale, 0 = no effect, 100 = complete control
[15] = 250 g ai/ha, scale 0 to 100 (0 no effect, 100 complete control), 13 to 15 days

Row | SMILES | Plant response rating, Windgrass [1, 10] | Plant response rating, Morningglory [2, 12] | Morningglory plant response rating ([2]; Postemergence, 500 g ai/ha) | Plant response rating, Morningglory [2, 13] | Plant response rating, Pigweed [3, 12] | Pigweed plant response rating ([3]; Postemergence, 500 g ai/ha) | Plant response rating, Pigweed [3, 13] | Plant response rating, Pigweed [3, 14] | Plant response rating, Foxtail, Giant [4, 12] | Foxtail, Giant plant response rating ([4]; Postemergence, 500 g ai/ha) | Plant response rating, Foxtail, Giant [4, 13] | Plant response rating, Foxtail, Giant [4, 14] | Plant response rating, Crabgrass, Large [5, 12] | Crabgrass, Large plant response rating ([5]; Postemergence, 500 g ai/ha) | Plant response rating, Crabgrass, Large [5, 13] | Plant response rating, Crabgrass, Large [5, 14] | Plant response rating, Velvetleaf [6, 12] | Velvetleaf plant response rating ([6]; Postemergence, 500 g ai/ha) | Plant response rating, Velvetleaf [6, 13] | Plant response rating, Velvetleaf [6, 14] | further results
1 | O=C1CCCC(O)=C1C(=O)c1cnc(-c2ccccc2)n(C2CC[S+]([O-])CC2)c1=O (mixture of isomers) [Compound 169, 5-[(2-hydroxy-6-oxo-1-cyclohexen-1-yl)carbonyl]-2-phenyl-3-(trans/cis-tetrahydro-1-oxido-2H-thiopyran-4-yl)-4(3H)-pyrimidinone] | 15 | 100 | 100 | 0 | 100 | 100 | 0 | 50 | 80 | 100 | 40 | 50 | 90 | 100 | 40 | 40 | 100 | 100 | 20 | 50 | Plant response rating, Windgrass ([1]; 16 g ai/ha, 0 to 100 scale): 5; Plant response rating, Windgrass [1, 11]: 55; Plant response rating, Morningglory [2, 14]: 20; Plant response rating, Barnyardgrass [7, 12]: 90; Barnyardgrass plant response rating ([7]; Postemergence, 500 g ai/ha): 100; Plant response rating, Barnyardgrass [7, 13]: 0; Plant response rating, Barnyardgrass [7, 14]: 50; Plant response rating, Wheat [8, 12]: 20; Wheat plant response rating ([8]; Postemergence, 500 g ai/ha): 20; Plant response rating, Wheat [8, 13]: 0; Plant response rating, Wheat [8, 14]: 0; Plant response rating, Corn [9, 12]: 0; Corn plant response rating ([9]; Postemergence, 500 g ai/ha): 30; Plant response rating, Corn [9, 13]: 0; Plant response rating, Corn [9, 14]: 20
2 | O=C1CCCC(O)=C1C(=O)c1cnc(C2CC2)n(C2CCCCC2)c1=O [Compound 160] | 20 | 100 | 100 | 70 | 100 | 100 | 80 | 100 | 70 | 80 | 20 | 70 | 90 | 90 | 80 | 100 | 100 | 100 | 60 | 30 | Plant response rating, Windgrass [1, 11]: 60; Plant response rating, Windgrass [1, 15]: 80; Plant response rating, Barnyardgrass [7, 12]: 90; Barnyardgrass plant response rating ([7]; Postemergence, 500 g ai/ha): 100; Plant response rating, Barnyardgrass [7, 13]: 40; Plant response rating, Barnyardgrass [7, 14]: 80; Plant response rating, Wheat [8, 12]: 0; Wheat plant response rating ([8]; Postemergence, 500 g ai/ha): 50; Plant response rating, Wheat [8, 13]: 0; Plant response rating, Wheat [8, 14]: 20; Plant response rating, Corn [9, 12]: 20; Corn plant response rating ([9]; Postemergence, 500 g ai/ha): 60; Plant response rating, Corn [9, 13]: 0; Plant response rating, Corn [9, 14]: 20
3 | CCCCn1c(-c2ccccc2)ncc(C(=O)C2=C(O)C3CCC(C3)C2=O)c1=O (centres unmarked) [Compound 240] | 60 | 100 | 100 | 0 | 90 | 100 | 20 | 100 | 90 | 100 | 40 | 80 | 90 | 100 | 50 | 100 | 100 | 100 | 60 | 80 | Plant response rating, Windgrass ([1]; 125 g ai/ha, scale 0 (no effect) to 100 (complete control), 13 to 15 days): 98; Plant response rating, Windgrass [1, 15]: 98; Plant response rating, Windgrass ([1]; 62 g ai/ha, scale 0 to 100 (0 no effect, 100 complete control)): 80; Plant response rating, Morningglory [2, 14]: 0; Plant response rating, Barnyardgrass [7, 12]: 100; Barnyardgrass plant response rating ([7]; Postemergence, 500 g ai/ha): 100; Plant response rating, Barnyardgrass [7, 13]: 40; Plant response rating, Wheat [8, 12]: 20; Wheat plant response rating ([8]; Postemergence, 500 g ai/ha): 40; Plant response rating, Wheat [8, 13]: 0; Plant response rating, Wheat [8, 14]: 40; Plant response rating, Corn [9, 12]: 40; Corn plant response rating ([9]; Postemergence, 500 g ai/ha): 80; Plant response rating, Corn [9, 13]: 0; Plant response rating, Corn [9, 14]: 40
